Values of other authors in patent US10894875B2, “Films and unit dose articles comprising aversive UV-protective agents, and uses and methods related thereto” (The Procter & Gamble Company, priority 2017, dated 2021).
Marks after values point to notes of the source that are not given here. Each block holds one molecule with its values, some of them ahead of it.

Experiments:
[1] = high assessed based on melting point; low = hydrolysis; based on literature
[2] = reference quinine; lower values correspond to stronger bittering
[3] = Scoville heat units

- Thermostability [1]: Low^c
Compound: CCCCCOC(=O)c1ccc(N(C)C)cc1 [Ex. 6, Padimate A, reference compound]

Compound: C=C[C@H]1C[N@@]2CC[C@H]1C[C@H]2[C@H](O)c1ccnc2ccc(OC)cc12 [Ex. 7, Quinine, reference compound]
- Bittering index [2]: 0^d

Compound: COc1cc(CNC(=O)CCCC/C=C/C(C)C)ccc1O [capsaicin]
- pungency level [3]: about 16,000,000 SHU
